Measurements reported in the NIST ThermoML archive (doi:10.1021/je900056u).

Tests used:
[1] = xn = mol fraction of the nth substance listed; conditions: 101 kPa, Liquid; for speed of sound: Linear variable-path acoustic interferometer; for mass density: Pycnometric method
[2] = 101 kPa, Liquid; for speed of sound: Linear variable-path acoustic interferometer; for mass density: Pycnometric method

CCC(C)=O [butanone] + O=S1(=O)CCCC1
[1], x2 = 0
Conditions	mass density [kg/m3]	speed of sound [m/s]
303.15 K	794.6	1178
308.15 K	790.4	1158
313.15 K	783.1	1136

CCC(=O)CC [pentan-3-one] + O=S1(=O)CCCC1
[1]
Conditions	mass density, 303.15 K [kg/m3]	mass density, 308.15 K [kg/m3]	mass density, 313.15 K [kg/m3]	speed of sound, 303.15 K [m/s]	speed of sound, 308.15 K [m/s]	speed of sound, 313.15 K [m/s]
x2 = 0	804.5	799.6	794.3	1197	1179	1160
x2 = 0.0252	815.9	811.1	805.8	1208	1191	1170
x2 = 0.1627	878.1	873.1	867.6	1257	1240	1218
x2 = 0.2922	937.4	931.9	926.6	1300	1283	1263
x2 = 0.4201	996.2	991.1	985.6	1345	1331	1315
x2 = 0.5234	1044.1	1039.1	1033.7	1388	1376	1361
x2 = 0.6292	1093.5	1088.4	1083.1	1435	1421	1406
x2 = 0.7487	1149.4	1144.2	1139.3	1490	1473	1460
x2 = 0.8644	1202.8	1198.1	1193.2	1536	1520	1506
x2 = 0.9804	1253.5	1250	1244.6	1579	1566	1550

O=S1(=O)CCCC1 [sulfolane] + CC(=O)CC(C)C
[1]
Conditions	mass density, 303.15 K [kg/m3]	mass density, 308.15 K [kg/m3]	mass density, 313.15 K [kg/m3]	speed of sound, 303.15 K [m/s]	speed of sound, 308.15 K [m/s]	speed of sound, 313.15 K [m/s]
x1 = 0.0287	803.4	799.3	793.9	1185	1166	1147
x1 = 0.1852	866.6	862.5	856.8	1233	1215	1198
x1 = 0.3272	927.3	923.3	917.6	1281	1263	1247
x1 = 0.4634	989.2	985.1	979.7	1335	1316	1300
x1 = 0.5671	1038.9	1034.6	1029.3	1381	1361	1345
x1 = 0.6671	1088.8	1083.9	1078.5	1426	1407	1391
x1 = 0.7777	1145.1	1140.7	1134.1	1479	1463	1447
x1 = 0.8809	1198.5	1195.1	1187.8	1530	1513	1496
x1 = 0.9829	1252.3	1249.2	1242.3	1578	1564	1550
x1 = 1	1261.8	1257	1251.6	1588	1576	1558

CCCC(C)=O [pentan-2-one] + O=S1(=O)CCCC1
[1]
Conditions	mass density, 303.15 K [kg/m3]	mass density, 308.15 K [kg/m3]	mass density, 313.15 K [kg/m3]	speed of sound, 303.15 K [m/s]	speed of sound, 308.15 K [m/s]	speed of sound, 313.15 K [m/s]
x2 = 0	796.6	792.7	785.5	1192	1176	1151
x2 = 0.0261	808.2	804.2	797.8	1203	1183	1161
x2 = 0.162	869.2	864.6	858.8	1246	1225	1203
x2 = 0.2945	929.2	924.8	919.1	1290	1271	1251
x2 = 0.445	998.5	994.6	989.1	1352	1340	1318
x2 = 0.5296	1038.2	1034.5	1029.1	1384	1373	1353
x2 = 0.6319	1086.6	1082.8	1078	1429	1418	1401
x2 = 0.7498	1143.2	1139.2	1134.7	1484	1469	1450
x2 = 0.8677	1200.2	1195.8	1191.6	1536	1520	1503
x2 = 0.9799	1253.2	1248.5	1243.6	1580	1562	1549

O=S1(=O)CCCC1 [sulfolane] + CCC(=O)CC
[1], x1 = 1
Conditions	mass density [kg/m3]	speed of sound [m/s]
303.15 K	1261.8	1588
308.15 K	1257	1576
313.15 K	1251.6	1558

CC(=O)CC(C)C [4-methylpentan-2-one]
[2]
Conditions	mass density [kg/m3]	speed of sound [m/s]
303.15 K	791.7	1175
308.15 K	787.7	1156
313.15 K	782.6	1138

O=S1(=O)CCCC1 [sulfolane] + CCCC(C)=O
[1], x1 = 1
Conditions	mass density [kg/m3]	speed of sound [m/s]
303.15 K	1261.8	1588
308.15 K	1257	1576
313.15 K	1251.6	1558

CCC(C)=O [butanone]
[2]
Conditions	mass density [kg/m3]	speed of sound [m/s]
303.15 K	794.6	1178
308.15 K	790.4	1158
313.15 K	783.1	1136

CC(=O)CC(C)C [4-methylpentan-2-one] + O=S1(=O)CCCC1
[1], x2 = 0
Conditions	mass density [kg/m3]	speed of sound [m/s]
303.15 K	791.7	1175
308.15 K	787.7	1156
313.15 K	782.6	1138

CCC(=O)CC [pentan-3-one]
[2]
Conditions	mass density [kg/m3]	speed of sound [m/s]
303.15 K	804.5	1197
308.15 K	799.6	1179
313.15 K	794.3	1160

CCCC(C)=O [pentan-2-one]
[2]
Conditions	mass density [kg/m3]	speed of sound [m/s]
303.15 K	796.6	1192
308.15 K	792.7	1176
313.15 K	785.5	1151

O=S1(=O)CCCC1 [sulfolane] + CCC(C)=O
[1]
Conditions	mass density, 303.15 K [kg/m3]	mass density, 308.15 K [kg/m3]	mass density, 313.15 K [kg/m3]	speed of sound, 303.15 K [m/s]	speed of sound, 308.15 K [m/s]	speed of sound, 313.15 K [m/s]
x1 = 0.0293	810.6	806.2	799.2	1191	1170	1149
x1 = 0.1391	869.7	865.6	858.7	1234	1215	1195
x1 = 0.2575	931.6	927.5	920.9	1288	1266	1247
x1 = 0.3803	993.5	989.6	983.5	1341	1319	1300
x1 = 0.4834	1043.1	1039.9	1034.4	1386	1366	1346
x1 = 0.5854	1089.7	1086.6	1081.8	1431	1413	1395
x1 = 0.7119	1145.2	1142	1137.2	1481	1465	1450
x1 = 0.8428	1200.5	1196.8	1191.8	1533	1517	1502
x1 = 0.9756	1252.7	1249	1243.7	1581	1568	1552
x1 = 1	1261.8	1257	1251.6	1588	1576	1558

O=S1(=O)CCCC1 [sulfolane]
[2]
Conditions	mass density [kg/m3]	speed of sound [m/s]
303.15 K	1261.8	1588
308.15 K	1257	1576
313.15 K	1251.6	1558
